From patent US20200215085A1, “Method to Abate Acute Airway Hypersensitivity and Asthma Attacks” (UTI Limited Partnership, priority 2017, published 2020)
Entries after “also recorded” stand apart in the source; their conditions may differ.

What was measured:
OVA-sensitized rats = experiment: bradykinin-induced bronchoconstriction (RL, Flexivent) in anesthetized ovalbumin-sensitized rats; assay type: in vivo, Brown Norway rats; details: nebulized 0.4 mg bradykinin at 1, 10, 20 min, antagonists iv (BrP-LPA 3 mg/kg, Ki16425 5 mg/kg, AMG9810 10 μM/kg)
Procedure: In order to examine the involvement of LPA-induced carotid body activity on airway resistance in response to bradykinin nebulization, alfaxan-anesthetized animals and the Flexivent system were used. These experiments were performed with a number of acute interventions affecting the proposed pathway, including vagotomy, carotid body denervation, and TRPV1 and/or LPA receptor blockade. Prior to bradykinin, these interventions had no effect on airway resistance (Holm-S̆idák post hoc test comparing asthma control vs any manipulation group: p>0.06) and as expected, bradykinin had no effect on non-asthmatic lungs (p>0.3). However, the acute bronchoconstriction induced by bradykinin in asthmatic lungs was diminished by at least 60% with all interventions (FIG. 4B). The loss of bradykinin-induced bronchoconstriction also occurred in chronic carotid body denervated, but not sham rats (data not shown).
Brown Norway rats (80-120 g) were sensitized to ovalbumin (1 mg) with pertussis toxin (0.5 ng) and aluminum hydroxide as adjuvant (0.15 g) dissolved in saline (1 ml ip; OVA sensitized), or saline (1 ml ip; Naïve) for three consecutive days (Days 1, 2, and 3) and challenged with aerosolized 5% ovalbumin (OVA, dissolved in 0.9% saline) or saline (Naïve) on days 15, 18 and 21 for 10 min. All anaesthetized experiments conducted on OVA and Naïve rats were conducted ˜7 days (day 28) following the last aerosol exposure. […]
OVA Cohort 1 (n=26): To determine the effect of bradykinin and OVA-sensitization on airway resistance (RL) OVA-sensitization (day 28) and naïve rats were anesthetized with isoflurane (5%, balance O2) and instrumented for surgery. […] Data were analyzed with two-way repeated measures ANOVA (time×group). […] Airway mechanics were measured in response to bradykinin nebulizations (as in Cohort 1). Heart rate was attained from the blood pressure waveform, SaO2 was monitored from a pulse oximeter (Kent Scientific, Torrington Conn.) and blood gases were analyzed from 0.1 ml arterial samples drawn before and after bradykinin with a blood gas analyzer (Element POC, Heska Barrie, ON). […]

carotid body [1] = experiment: en bloc perfused carotid body preparation: carotid sinus nerve response to LPA; design: species or system Sprague-Dawley rats; details: for reduction of 5 μM LPA-mediated carotid sinus nerve excitation: 5 μM LPA (18:1), AMG9810 10 μM, BrP-LPA 1.5 μM, Ki16425 5 μM, mean±sem; for effect of LPAr blockade on carotid sinus nerve response to LPA (5 μM): BrP-LPA 1.5 μM or Ki16425 5 μM, FIGS. 2A-2B; for en bloc carotid body's response to LPA blocked: en bloc preparation
naïve Brown Norway rats = experiment: airway resistance after intravenous bolus in naïve anesthetized ventilated rats (Flexivent); assay type: in vivo; details: naïve rats with intact CSN; 0.5 ml bolus, 5 μM LPA or 6 μM NaCN
asthmatic rats = experiment: airway resistance after nebulized LPA in asthmatic rats (Cohort 5); assay type: in vivo, rat; details: nebulized LPA 5 μM
glomus cells = experiment: Fura 2 calcium imaging of carotid body type I (glomus) cells; assay type: cell-based, Sprague-Dawley rats; details: LPA 5 μM
Procedure: Sprague-Dawley rats (80-150 g, P21-28) were anaesthetised with isoflurane (3-5% in O2) and carotid bodies were harvested and digested in 0.4 mg ml^−1 collagenase type I (Worthington Biochemical Corporation, Lakewood, N.J.) and 0.2 mg ml^−1 trypsin type I (Sigma-Aldrich, St. Catherines, QC) in DPBS enzyme solution with low CaCl2) (86 μM) and MgCl2 (350 μM), for 20 min at 37° C. followed by dissociation with forceps and incubated for an additional 7 min. The tissue was centrifuged (115 g) for 3 min, supernatant removed and the pellet re-suspended in Ham's F12 (Sigma-Aldrich, St. Catherines, QC) supplemented with 10% heat inactivated fetal bovine serum (Biowest, San Marcos, Tex.). Cells were released by trituration with fire polished silanised Pasteur pipettes (Sigma-Aldrich, St. Catherines, QC). […]
Type I cells were loaded with 5 μM FURA-2AM (Invitrogen, Carlsbad Calif.) in serum free Ham's F12 nutrient media for 30 min at room temperature in humidified 5% CO2, 10% O2, before being transferred to FURA-2AM-free media in the same conditions for 20 min. […] The FURA-2 loaded cells were excited by 50 ms exposures to 340/380 nm light using a Lambda 10-3 filter wheel every 5 s and emitted light was recorded at 510 nm using a Coolsnap HQ2 CCD camera (Photometrics, Tucson Ariz.). […]

carotid body [2] = experiment: in situ dual-perfused preparation: phrenic and vagal nerve discharge after LPA to the carotid body circulation; design: species or system Sprague-Dawley rats; details: carotid bodies intact

Molecule | effect on bradykinin-induced increase in RL compared to OVA (OVA-sensitized rats) | reduction of 5 μM LPA-mediated carotid sinus nerve excitation (carotid body [1]) [%] | LPA response remaining after BrP-LPA or Ki16425 blockade, on subsequent application of AMG9810 (carotid body [1]; AMG9810 10 μM added after LPAr blockade (dual block), LPA 5 μM) | effect of LPAr blockade on carotid sinus nerve response to LPA (5 μM) (carotid body [1]) | en bloc carotid body's response to LPA blocked (carotid body [1]) | airway resistance (naïve Brown Norway rats) | immediate effect of nebulized LPA on airway resistance (asthmatic rats) | airway resistance after 30 min of nebulized LPA (asthmatic rats; abolished by carotid body denervation) | intracellular calcium in glomus cells (glomus cells) | phrenic nerve burst amplitude (carotid body [2]; LPA 5 μM delivered to the CB circulation, baseline 1±0.5) [normalized units] | phrenic nerve burst rate (carotid body [2]; LPA 5 μM delivered to the CB circulation, baseline 1.2±0.8) [burst·min^−1] | phrenic and vagal nerve efferent discharge (carotid body [2]; bolus of 5 μM LPA)
CC(C)(C)c1ccc(/C=C/C(=O)Nc2ccc3c(c2)OCCO3)cc1 [AMG9810, (2E)-N-(2,3-Dihydro-1,4-benzodioxin-6-yl)-3-[4-(1,1-dimethylethyl)phenyl]-2-propenamide] | abolished the effects of bradykinin | 41±6 | blocks the LPA response; also recorded: almost abolished |  |  |  |  |  |  |  |  | 
CCCCCCCCCCCCCCCC(=O)OC[C@@H](O)CC(Br)P(=O)(O)O (stereo partly drawn) [BrP-LPA, [(3S)-1-bromo-4-hexadecanoyloxy-3-hydroxybutyl]phosphonic acid] | abolished the effects of bradykinin | 70±3 |  | diminishes the response to LPA | Approximately 70% |  |  |  |  |  |  | 
Cc1noc(-c2ccc(CSCCC(=O)O)cc2)c1NC(=O)OC(C)c1ccccc1Cl (stereo not drawn) [Ki16425, 3-(4-[4-([1-(2-chlorophenyl)ethoxy]carbonylamino)-3-methyl-5-isoxazolyl]benzylsulfanyl) propanoic acid] | abolished the effects of bradykinin | 61±9 |  | diminishes the response to LPA | Approximately 70% |  |  |  |  |  |  | 
Oleoyl-Lysophosphatidic acid [LPA] |  |  |  |  |  | increased airway resistance | no immediate effect | increase in airway resistance | increased intracellular calcium release | 2.5±0.5 | 20.8±2.9 | increases
